Measured values taken from PMC3334291 (Biochemistry, 2012).

Tests used:
[1] = target: MelBSt (melibiose permease of Salmonella typhimurium) (Salmonella enterica, UniProt P30878, L5M/G117A); conditions: read-out: G117A; 20 mM NaCl, 10 μM D2G, 100 mM KPi pH 7.5; sugar site, competitive
[2] = target: MelBSt (melibiose permease of Salmonella typhimurium) (Salmonella enterica, UniProt P30878, L5M); conditions: read-out: WT; 20 mM NaCl, 10 μM D2G, 100 mM KPi pH 7.5; sugar site, competitive

OC[C@H]1O[C@H](OC[C@H]2OC(O)[C@H](O)[C@@H](O)[C@@H]2O)[C@H](O)[C@@H](O)[C@H]1O (some centres unmarked) [melibiose]
IC50 [1]: 8.1 mM | IC50 [2]: 3.8 mM
